#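 Test compounds were applied to cells in 96-well plates for 48 hours at 5 doses. Here, GI50 denotes the concentration required for 50% inhibition of growth. Definition used: TGI = concentration required for complete inhibition of growth.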
# Columns and labels:
# Assay in all cases: growth of human tumour cells (NCI), 48 h
# [1] = test system: SK-MEL-5 melanoma
# [2] = test system: SNB-75 CNS
# [3] = test system: SN12C renal
# [4] = test system: SF-295 CNS
# [5] = test system: OVCAR-8 ovarian
# [6] = test system: MDA-MB-231 breast
# [7] = test system: NCI-H460 lung
# [8] = test system: NCI/ADR-RES ovarian
# [9] = test system: HOP-62 NSCLC
# [10] = test system: HCT-15 colon
# [11] = test system: MALME-3M melanoma
# [12] = test system: PC-3 prostate
# [13] = test system: U251 CNS
# [14] = test system: HCC-2998 colon
# [15] = test system: IGROV1 ovarian
# [16] = test system: MOLT-4 leukemia
# [17] = test system: SW-620 colon
# [18] = test system: HT29 colon
# [19] = test system: OVCAR-3 ovarian
# [20] = test system: RXF 393 renal
# [21] = test system: COLO 205 colon
# [22] = test system: BT-549 breast
# [23] = test system: SK-OV-3 ovarian
# [24] = test system: NCI-H226 lung
# [25] = test system: UACC-62 melanoma
# [26] = test system: SK-MEL-2 melanoma
# [27] = test system: SF-539 CNS
# [28] = test system: KM12 colon
# [29] = test system: SR leukemia
# [30] = test system: UACC-257 melanoma
# [31] = test system: CAKI-1 renal
# [32] = test system: RPMI-8226 leukemia
# [33] = test system: MDA-MB-468 breast
# [34] = test system: SF-268 CNS
# [35] = test system: UO-31 renal
# [36] = test system: M14 melanoma
# [37] = test system: K-562 leukemia
# [38] = test system: A549 NSCLC
# [39] = test system: TK-10 renal
# [40] = test system: LOX IMVI melanoma
# [41] = test system: OVCAR-4 ovarian
# [42] = test system: A498 renal
# [43] = test system: HS 578T breast
# [44] = test system: HOP-92 NSCLC
# [45] = test system: 786-0 renal
# [46] = test system: SK-MEL-28 melanoma
# [47] = test system: MCF7 breast
# [48] = test system: ACHN renal
# [49] = test system: DU-145 prostate
# [50] = test system: NCI-H23 lung
# [51] = test system: HL-60(TB) leukemia
# [52] = test system: EKVX NSCLC
# [53] = test system: MDA-MB-435
# [54] = test system: SNB-19 CNS
# [55] = test system: CCRF-CEM leukemia
# [56] = test system: HCT-116 colon
# [57] = test system: T-47D breast
# [58] = test system: OVCAR-5 ovarian
# [59] = test system: NCI-H522 lung
structure (smiles),measurement,setting,value
COc1ccc(-c2cc(C(=O)N=Nc3c(O)[nH]c4ccccc34)c3ccccc3n2)cc1,GI50,[1],12.1 µM
same,TGI,[1],25 µM
same,GI50,[2],1940 nM
same,TGI,[2],15.1 µM
same,GI50,[3],11.3 µM
same,TGI,[3],24.4 µM
same,GI50,[4],11.2 µM
same,TGI,[4],24 µM
same,GI50,[5],3.13 µM
same,TGI,[5],12.4 µM
same,GI50,[6],2800 nM
same,TGI,[6],10.2 µM
same,GI50,[7],3.32 µM
same,TGI,[7],11.4 µM
same,GI50,[8],3.48 µM
same,TGI,[8],15 µM
same,GI50,[9],4.19 µM
same,TGI,[9],17.8 µM
same,GI50,[10],10.3 µM
same,TGI,[10],24.7 µM
same,GI50,[11],3.14 µM
same,TGI,[11],9.99 µM
same,GI50,[12],5.2 µM
same,TGI,[12],27.4 µM
same,GI50,[13],2340 nM
same,TGI,[13],6.37 µM
same,GI50,[14],3.87 µM
same,TGI,[14],13.1 µM
same,GI50,[15],5.07 µM
same,TGI,[15],18.3 µM
same,GI50,[16],4.93 µM
same,TGI,[16],> 100 µM
same,GI50,[17],3.91 µM
same,TGI,[17],17.5 µM
same,GI50,[18],3.59 µM
same,TGI,[18],12.8 µM
same,GI50,[19],3.63 µM
same,TGI,[19],14.4 µM
same,GI50,[20],4.16 µM
same,TGI,[20],15.4 µM
same,GI50,[21],11.6 µM
same,TGI,[21],26.6 µM
same,GI50,[22],14.5 µM
same,TGI,[22],29 µM
same,GI50,[23],11.6 µM
same,TGI,[23],24.8 µM
same,GI50,[24],4.1 µM
same,TGI,[24],19.4 µM
same,GI50,[25],9.93 µM
same,TGI,[25],21.8 µM
same,GI50,[26],16 µM
same,TGI,[26],35.2 µM
same,GI50,[27],3.2 µM
same,TGI,[27],10.2 µM
same,GI50,[28],11.1 µM
same,TGI,[28],28.3 µM
same,GI50,[29],4.05 µM
same,TGI,[29],> 100 µM
same,GI50,[30],9.71 µM
same,TGI,[30],24.1 µM
same,GI50,[31],2560 nM
same,TGI,[31],11 µM
same,GI50,[32],9.32 µM
same,TGI,[32],> 100 µM
same,GI50,[33],4.94 µM
same,TGI,[33],17.3 µM
same,GI50,[34],4.43 µM
same,TGI,[34],20.8 µM
same,GI50,[35],6 µM
same,TGI,[35],20.1 µM
same,GI50,[36],4.3 µM
same,TGI,[36],17.4 µM
same,GI50,[37],4.53 µM
same,TGI,[37],> 100 µM
same,GI50,[38],2080 nM
same,TGI,[38],4.78 µM
same,GI50,[39],17.9 µM
same,TGI,[39],32.9 µM
same,GI50,[40],6.17 µM
same,TGI,[40],19.3 µM
same,GI50,[41],5.24 µM
same,TGI,[41],20.9 µM
same,GI50,[42],21.4 µM
same,TGI,[42],38.6 µM
same,GI50,[43],14 µM
same,TGI,[43],65.7 µM
same,GI50,[44],3.26 µM
same,TGI,[44],16.7 µM
same,GI50,[45],6.88 µM
same,TGI,[45],20.8 µM
same,GI50,[46],4.26 µM
same,TGI,[46],14.7 µM
same,GI50,[47],10.7 µM
same,TGI,[47],26.3 µM
same,GI50,[48],11 µM
same,TGI,[48],22.9 µM
same,GI50,[49],3.27 µM
same,TGI,[49],12.1 µM
same,GI50,[50],2910 nM
same,TGI,[50],11.4 µM
same,GI50,[51],13.1 µM
same,TGI,[51],> 100 µM
same,TGI,[52],22.5 µM
same,GI50,[53],3.04 µM
same,TGI,[53],12.1 µM
same,GI50,[54],11 µM
same,TGI,[54],23 µM
same,GI50,[55],9.06 µM
same,TGI,[55],> 100 µM
same,GI50,[56],3.18 µM
same,TGI,[56],10.7 µM
same,GI50,[57],8.61 µM
same,TGI,[57],27.2 µM
same,GI50,[58],5.75 µM
same,TGI,[58],18.6 µM
same,GI50,[59],1880 nM
same,TGI,[59],4.71 µM

# Source: PubChem BioAssay (NCI)
